Like-named read-outs stand apart in the source and are kept apart here.
Experiments:
OVCAR-5 (Ovarian Cancer) = experiment: NCI DTP tumor cell line screen (SRB), OVCAR-5
Method: (§1) For a typical screening experiment, cells are inoculated into 96 well microtiter plates in 100 μL at plating densities ranging from 5,000 to 40,000 cells/well depending on the doubling time of individual cell lines. After cell inoculation, the microtiter plates are incubated at 37° C., 5% CO2, 95% air and 100% relative humidity for 24 h prior to addition of experimental drugs.
(§2) After 24 h, two plates of each cell line are fixed in situ with TCA, to represent a measurement of the cell population for each cell line at the time of drug addition (Tz). Experimental drugs are solubilized in dimethyl sulfoxide at 400-fold the desired final maximum test concentration and stored frozen prior to use. At the time of drug addition, an aliquot of frozen concentrate is thawed and diluted to twice the desired final maximum test concentration with complete medium containing 50 μg/ml gentamicin. Additional four, 10-fold or ½ log serial dilutions are made to provide a total of five drug concentrations plus control. Aliquots of 100 μl of these different drug dilutions are added to the appropriate microtiter wells already containing 100 μl of medium, resulting in the required final drug concentrations.
(§3) Following drug addition, the plates are incubated for an additional 48 h at 37° C., 5% CO2, 95% air, and 100% relative humidity. For adherent cells, the assay is terminated by the addition of cold TCA. Cells are fixed in situ by the gentle addition of 50 μl of cold 50% (w/v) TCA (final concentration, 10% TCA) and incubated for 60 minutes at 4° C. The supernatant is discarded, and the plates are washed five times with tap water and air dried. Sulforhodamine B (SRB) solution (1001) at 0.4% (w/v) in 1% acetic acid is added to each well, and plates are incubated for 10 minutes at room temperature. After staining, unbound dye is removed by washing five times with 1% acetic acid and the plates are air dried. Bound stain is subsequently solubilized with 10 mM trizma base, and the absorbance is read on an automated plate reader at a wavelength of 515 nm. For suspension cells, the methodology is the same except that the assay is terminated by fixing settled cells at the bottom of the wells by gently adding 50 μl of 80% TCA (final concentration, 16% TCA). Using the seven absorbance measurements [time zero, (Tz), control growth, (C), and test growth in the presence of drug at the five concentration levels (Ti)], the percentage growth is calculated at each of the drug concentrations levels. Percentage growth inhibition is calculated as: [(Ti−Tz)/(C−Tz)]×100 for concentrations for which Ti>/=Tz [(Ti−Tz)/Tz]×100 for concentrations for which Ti<Tz
(§4) Three dose response parameters are calculated for each experimental agent. […] The drug concentration resulting in total growth inhibition (TGI) is calculated from Ti=Tz. […] Values are calculated for each of these three parameters if the level of activity is reached; however, if the effect is not reached or is exceeded, the value for that parameter is expressed as greater or less than the maximum or minimum concentration tested.

HS 578T (Breast Cancer) = experiment: NCI DTP tumor cell line screen (SRB), HS 578T
Method: as §1, §2, §3, §4

CCRF-CEM (Leukemia) = experiment: NCI DTP tumor cell line screen (SRB), CCRF-CEM
Method: as §1, §2, §3, §4

[1] = tested on: NCI-H460 (Non-Small Cell Lung Cancer)
Method: as §1, §2, §3, §4

COLO 205 (Colon Cancer) = experiment: NCI DTP tumor cell line screen (SRB), COLO 205
Method: as §1, §2, §3, §4

MALME-3M (Melanoma) = experiment: NCI DTP tumor cell line screen (SRB), MALME-3M
Method: as §1, §2, §3, §4

SK-MEL-5 (Melanoma) = experiment: NCI DTP tumor cell line screen (SRB), SK-MEL-5
Method: as §1, §2, §3, §4

RPMI-8226 (Leukemia) = experiment: NCI DTP tumor cell line screen (SRB), RPMI-8226
Method: as §1, §2, §3, §4

[2] = tested on: MDA-MB-231/ATCC (Breast Cancer); experiment: NCI DTP tumor cell line screen (SRB), MDA-MB-231/ATCC
Method: as §1, §2, §3, §4

Structure (SMILES): NCC(=O)Nc1ccc(-n2nc(C(F)(F)F)cc2-c2ccc3c(ccc4ccccc43)c2)cc1 [Compound 70, 2-Amino-N-{4-[5-(2-phenanthrenyl)-3-(trifluoromethyl)-1H-pyrazol-1-yl]-phenyl}-acetamide]
- Mean Optical Densities (OVCAR-5 (Ovarian Cancer); Log10 Concentration −6.0): 1.412
- Percent Growth (OVCAR-5 (Ovarian Cancer); Log10 Concentration −6.0): 90%
- Mean Optical Densities (OVCAR-5 (Ovarian Cancer); Log10 Concentration −7.0): 1.540
- Percent Growth (OVCAR-5 (Ovarian Cancer); Log10 Concentration −7.0): 103%
- Mean Optical Densities (OVCAR-5 (Ovarian Cancer); Log10 Concentration −8.0): 1.480
- Percent Growth (OVCAR-5 (Ovarian Cancer); Log10 Concentration −8.0): 97%
- TGI (HS 578T (Breast Cancer)): 5.25E−06
- Mean Optical Densities (HS 578T (Breast Cancer); Log10 Concentration −4.0): 0.333
- Mean Optical Densities (HS 578T (Breast Cancer); Log10 Concentration −5.0): 0.351
- Mean Optical Densities (HS 578T (Breast Cancer); Log10 Concentration −6.0): 1.110
- Mean Optical Densities (HS 578T (Breast Cancer); Log10 Concentration −7.0): 1.179
- Mean Optical Densities (HS 578T (Breast Cancer); Log10 Concentration −8.0): 1.221
- TGI (CCRF-CEM (Leukemia)): 2.49E−06
- Mean Optical Densities (CCRF-CEM (Leukemia); Log10 Concentration −4.0): 0.194
- Mean Optical Densities (CCRF-CEM (Leukemia); Log10 Concentration −5.0): 0.168
- Percent Growth (CCRF-CEM (Leukemia); Log10 Concentration −5.0): −43%
- Mean Optical Densities (CCRF-CEM (Leukemia); Log10 Concentration −6.0): 0.523
- Percent Growth (CCRF-CEM (Leukemia); Log10 Concentration −6.0): 28%
- Mean Optical Densities (CCRF-CEM (Leukemia); Log10 Concentration −7.0): 0.946
- Percent Growth (CCRF-CEM (Leukemia); Log10 Concentration −7.0): 81%
- Percent Growth (CCRF-CEM (Leukemia); Log10 Concentration −8.0): 74%
- TGI [1]: 2.64E−06
- Mean Optical Densities ([1]; Log10 Concentration −4.0): 0.213
- Mean Optical Densities ([1]; Log10 Concentration −5.0): 0.173
- Mean Optical Densities ([1]; Log10 Concentration −6.0): 0.830
- Percent Growth ([1]; Log10 Concentration −6.0): 34%
- Mean Optical Densities ([1]; Log10 Concentration −7.0): 1.499
- Percent Growth ([1]; Log10 Concentration −7.0): 77%
- Mean Optical Densities ([1]; Log10 Concentration −8.0): 1.799
- Percent Growth ([1]; Log10 Concentration −8.0): 97%
- Mean Optical Densities (COLO 205 (Colon Cancer); Log10 Concentration −4.0): 0.239
- Mean Optical Densities (COLO 205 (Colon Cancer); Log10 Concentration −5.0): 0.104
- Percent Growth (COLO 205 (Colon Cancer); Log10 Concentration −5.0): −53%
- Mean Optical Densities (COLO 205 (Colon Cancer); Log10 Concentration −6.0): 0.916
- Percent Growth (COLO 205 (Colon Cancer); Log10 Concentration −6.0): 58%
- Mean Optical Densities (COLO 205 (Colon Cancer); Log10 Concentration −7.0): 1.252
- Percent Growth (COLO 205 (Colon Cancer); Log10 Concentration −7.0): 87%
- Mean Optical Densities (COLO 205 (Colon Cancer); Log10 Concentration −8.0): 1.286
- Percent Growth (COLO 205 (Colon Cancer); Log10 Concentration −8.0): 89%
- TGI (MALME-3M (Melanoma)): 3.67E−06
- Mean Optical Densities (MALME-3M (Melanoma); Log10 Concentration −4.0): 0.290
- Mean Optical Densities (MALME-3M (Melanoma); Log10 Concentration −5.0): 0.218
- Mean Optical Densities (MALME-3M (Melanoma); Log10 Concentration −6.0): 1.102
- Mean Optical Densities (MALME-3M (Melanoma); Log10 Concentration −7.0): 1.128
- TGI (SK-MEL-5 (Melanoma)): 3.02E−06
- Mean Optical Densities (SK-MEL-5 (Melanoma); Log10 Concentration −4.0): 0.364
- Mean Optical Densities (SK-MEL-5 (Melanoma); Log10 Concentration −5.0): 0.136
- Percent Growth (SK-MEL-5 (Melanoma); Log10 Concentration −5.0): −75%
- Mean Optical Densities (SK-MEL-5 (Melanoma); Log10 Concentration −6.0): 1.659
- Percent Growth (SK-MEL-5 (Melanoma); Log10 Concentration −6.0): 69%
- Mean Optical Densities (SK-MEL-5 (Melanoma); Log10 Concentration −7.0): 1.958
- Percent Growth (SK-MEL-5 (Melanoma); Log10 Concentration −7.0): 88%
- Mean Optical Densities (SK-MEL-5 (Melanoma); Log10 Concentration −8.0): 1.995
- Percent Growth (SK-MEL-5 (Melanoma); Log10 Concentration −8.0): 91%
- TGI (RPMI-8226 (Leukemia)): 2.84E−06
- Mean Optical Densities (RPMI-8226 (Leukemia); Log10 Concentration −4.0): 0.229
- Mean Optical Densities (RPMI-8226 (Leukemia); Log10 Concentration −5.0): 0.164
- Percent Growth (RPMI-8226 (Leukemia); Log10 Concentration −5.0): −51%
- Mean Optical Densities (RPMI-8226 (Leukemia); Log10 Concentration −6.0): 0.547
- Percent Growth (RPMI-8226 (Leukemia); Log10 Concentration −6.0): 42%
- Mean Optical Densities (RPMI-8226 (Leukemia); Log10 Concentration −7.0): 0.701
- Percent Growth (RPMI-8226 (Leukemia); Log10 Concentration −7.0): 72%
- Mean Optical Densities (RPMI-8226 (Leukemia); Log10 Concentration −8.0): 0.766
- Percent Growth (RPMI-8226 (Leukemia); Log10 Concentration −8.0): 85%
- TGI [2]: 2.77E−06
- Mean Optical Densities ([2]; Log10 Concentration −4.0): 0.306
- Mean Optical Densities ([2]; Log10 Concentration −5.0): 0.173
- Percent Growth ([2]; Log10 Concentration −5.0): −73%
- Mean Optical Densities ([2]; Log10 Concentration −6.0): 0.843
- Percent Growth ([2]; Log10 Concentration −6.0): 58%
- Mean Optical Densities ([2]; Log10 Concentration −7.0): 0.889
- Percent Growth ([2]; Log10 Concentration −7.0): 71%
- Mean Optical Densities ([2]; Log10 Concentration −8.0): 0.988
- Percent Growth ([2]; Log10 Concentration −8.0): 100%

Source: US8741944B2, “Anti-infective agents against intracellular pathogens” (priority 2007, dated 2014)
